Assay results taken from ChEMBL document CHEMBL1139190, “Pyrazolo[1,5-a]pyridine antiherpetics: effects of the C3 substituent on antiviral activity” (Bioorg Med Chem Lett, 2007).

Assays:
[1] = Cytotoxicity against Vero SC16 cells; assay type: cell-based; details: chlorocebus sabaeus
[2] = Therapeutic index, ratio of CC50 for Vero SC16 cells to EC50 for HSV1; assay type: cell-based; details: monkey, read-out: Ratio CC50/EC50
[3] = test system: Human alphaherpesvirus 1; assay: Antiviral activity against HSV1 in Vero SC16 cells by capture hybrid method; assay type: functional, organism-based; details: Human alphaherpesvirus 1, Vero

| SMILES | CC50 [1] [µM] | selectivity ratio [2] | EC50 [3] [µM] |
| --- | --- | --- | --- |
| Fc1ccc(-c2nn3c(NC4CCCC4)cccc3c2-c2ccnc(NC3CCCC3)n2)cc1 | > 160 | > 615 | 0.26 |
| Nc1nccc(-c2c(-c3ccc(F)cc3)nn3c(NC4CCCC4)cccc23)n1 | 46 | 11 | 4.1 |
| Fc1ccc(-c2nn3c(NC4CCCC4)cccc3c2-c2ccc3[nH]ccc3c2)cc1 | 20 | 5 | 3.9 |
| Fc1ccc(-c2nn3c(NC4CCCC4)cccc3c2-c2cccnc2)cc1 | > 40 | > 11 | 3.4 |
| Fc1ccc(-c2nn3c(NC4CCCC4)cccc3c2-c2cccnc2NC2CCCC2)cc1 | – | – | > 40 |
| Fc1ccc(-c2nn3c(NC4CCCC4)cccc3c2-c2ccc(NC3CCCC3)nc2)cc1 | – | – | > 40 |
| Cc1nc(-c2c(-c3ccc(F)cc3)nn3c(NC4CCCC4)cccc23)co1 | – | – | > 40 |
| Fc1ccc(-c2nn3c(NC4CCCC4)cccc3c2-c2ccoc2)cc1 | – | – | > 10 |
| Fc1ccc(-c2nn3c(NC4CCCC4)cccc3c2-c2cc[nH]n2)cc1 | 14 | 6 | 2.5 |
| Fc1ccc(-c2nn3c(NC4CCCC4)cccc3c2-c2ccco2)cc1 | – | – | > 10 |
| Nc1n[nH]cc1-c1c(-c2ccc(F)cc2)nn2c(NC3CCCC3)cccc12 | 20 | 4 | 4.9 |
| Nc1nc(-c2c(-c3ccc(F)cc3)nn3c(NC4CCCC4)cccc23)c[nH]1 | – | – | > 10 |
| Fc1ccc(-c2nn3c(NC4CCCC4)cccc3c2-c2c[nH]c(NC3CCCC3)n2)cc1 | 40 | 5 | 7.9 |
| Fc1ccc(-c2nn3c(NC4CCCC4)cccc3c2-c2ccno2)cc1 | – | – | > 10 |
| Nc1nc(-c2c(-c3ccc(F)cc3)nn3c(NC4CCCC4)cccc23)cs1 | – | – | 8.6 |
| Fc1ccc(-c2nn3c(NC4CCCC4)cccc3c2-c2ccsc2)cc1 | – | – | > 10 |
| Fc1ccc(-c2nn3c(NC4CCCC4)cccc3c2-c2cn[nH]c2)cc1 | 10 | 2 | 4.7 |
| Fc1ccc(-c2nn3c(NC4CCCC4)cccc3c2-c2ccnc(NC3CCCC3)c2)cc1 | > 40 | > 108 | 0.37 |
| Fc1ccc(-c2nn3c(NC4CCCC4)cccc3c2-c2cc(NC3CCCC3)ncn2)cc1 | > 40 | > 46 | 0.85 |
| NNc1cc(-c2c(-c3ccc(F)cc3)nn3c(NC4CCCC4)cccc23)ccn1 | 40 | 7 | 5.7 |
| [N-]=[N+]=Nc1cc(-c2c(-c3ccc(F)cc3)nn3c(NC4CCCC4)cccc23)ccn1 | – | – | > 40 |
| Fc1ccc(-c2nn3c(NC4CCCC4)cccc3c2-c2ccc(F)nc2)cc1 | – | – | > 40 |
| Fc1ccc(-c2nn3c(NC4CCCC4)cccc3c2-c2ccnnc2)cc1 | – | – | > 10 |
| Nc1cccc(-c2c(-c3ccc(F)cc3)nn3c(NC4CCCC4)cccc23)c1 | – | – | > 10 |
| Fc1ccc(-c2nn3c(NC4CCCC4)cccc3c2-c2ccnc(F)c2)cc1 | – | – | > 40 |
